Experimental data taken from patent publication US12564635B2, “Long-lived gadolinium based tumor targeted imaging and therapy agents” (WISCONSIN ALUMNI RESEARCH FOUNDATION, priority 2015, dated 2026).

Tests used:
[1] = at this field strength (4.7 T); cited from earlier work
[2] = tested on: flank U87 (human glioma) tumor; assay: In vivo MRI of flank U87 xenograft mice
Method: To test uptake and retention in rodent models of human cancer, flank xenografts were established in mice for two distinct tumor types, A549 (human non small cell lung cancer, NSCLC) and U87 (human glioma). N=3 for each model. For pre-contrast imaging, T1-W images of the tumor and abdomen (FIG. 4; 2 leftmost images) and T1 maps of the tumor were obtained.
At time zero (“contrast”), 2.5 mg of Gd-DO3A-404 (˜12 mmol/kg body mass) was delivered into the mice by intravenous injection. Animals were scanned pre-contrast and at various time points between one hour and seven days post-contrast (after one hour, 24 hours, 48 hours, three days, four days and seven days). T1 maps of the tumor were acquired for each time point, along with T1-weighted images of the tumor and the abdomen (see FIGS. 4 and 5).
We the quantified the tumor to muscle ratio and compare it to baseline scans.

[3] = tested on: flank U87 (human glioma) xenograft; assay: Simultaneous PET/MR imaging of U87 flank xenograft rat; assay type: in vivo
Method: Simultaneous imaging was performed using a clinical Pet/MRI scanner. ^64Cu-DO3A-404 has the same structure as Gd-DO3A-404, except that ^64Cu, a positron emitting radionuclide, is chelated to the chelating moiety instead of Gd. ^64Cu-DO3A-404 was synthesized (and can be synthesized using the methods disclosed herein; see, e.g., Example 1). Both the ^64Cu-DO3A-404 and Gd-DO3A-404 chelates were injected simultaneously into a rat with a flank U87 (human glioma) xenograft.
T1-weighted scans of the U87 flank xenograft were obtained using the clinical 3.0 T PET/MR. Rats were imaged pre- and 24 hours post-administration of the Gd-DO3A-404.
Simultaneous PET/MR scans of the U87-flank bearing rat 24 hours post-simultaneous administration of both Gd-DO3A-404 (the MRI contrast agent) and ^64Cu-DO3A-404 (the PET contrast agent) were obtained.

[4] = MR relaxivity (r1, r2) at 4.7 T; assay type: physicochemical
Method: For initial studies, relaxivity was measured at 4.7 T. Longitudinal relaxivity, which is defined by the linear relationship between R1 relaxation rate and concentration, was measured using an inversion recovery spin echo sequence.
Higher relaxivity results in brighter signal on a T1-weighted image, and thus indicates greater T1-weighted signal enhancement potential. […]
Similarly, by plotting R2 versus concentration at five different concentrations of the Gd-DOTA-404 agent and determining the equation of the resulting line (see FIG. 3, right panel), we calculated a transverse relaxivity in plasma of 20.4 s−1/mM.

[5] = tested on: Orthotopic GSC 115 (human glioma stem cell model); assay: MRI uptake in orthotopic GSC 115 model; assay type: in vivo; conditions: 24 hours post administration; FIG. 18 right
Method: Orthotopic GSC 115 was imaged at 24 hours post administration of Gd-DO3A-404. GSC is a human glioma stem cell model which was isolated from a human glioma patient.

[6] = Free Gd concentration by CHELEX solid phase extraction and ICP-MS; assay type: physicochemical; conditions: CHELEX solid phase extraction, magnetic sector ICP-MS
Description: After considering other alternatives, we decided to determine free Gd concentration by selective chelation and separation of the free Gd. We separated the Gd-DO3A-404 complex from free Gd (III) ion by CHELEX® solid phase extraction (as described by Raju, et al., J. Anal. At. Spectrom. 25 (2010), 1573-1580). Specifically, using a CHELEX® solid phase extraction column comprising an immobilized ligand (iminodiacetate) with very high affinity for free ion species of multi-valent transition and rare-earth metals, Gd was retained and then eluted using a known ratio of chelated Gd-DO3A-404 and acid-digested Gd-DO3A-404. The sample was the analyzed by magnetic sector ICP-MS to determine the concentration of free Gd.

[7] = tested on: Alpha-beta crystalline overexpressing mice (triple negative breast cancer model); assay: MRI uptake in triple-negative breast cancer model; assay type: in vivo, mouse; conditions: over 48 hours post-administration; FIG. 17
Method: Alpha-beta crystalline overexpressing mice (a triple negative breast cancer model) underwent MR imaging pre administration and 24 hours and 48 hours post-administration of […] (n=4).

[8] = tested on: orthotopic glioblastoma stem cell line 12.6; assay: Brain tumor uptake by MRI in orthotopic glioblastoma model; assay type: in vivo, mouse
Method: To investigate the use of Gd-DO3A-404 to detect tumors and metastases in situ, in particular, in the brain, we created an orthotopic glioblastoma model using cancer stem cells injected into the brain. To create the model, brains of mice were injected with cells from orthotopic glioblastoma stem cell line 12.6. After sufficient tumor growth, monitored with T2-weighted MRI, we imaged subjects pre-contrast and after delivery (24-72 hours) of two different doses of Gd-DO3A-404 (2.5 or 3.7 mg; ˜0.12−0.18 mmole/kg).

[9] = tested on: A549 flank tumor; assay: Tissue biodistribution by SF-ICPMS in A549-flank bearing mice; assay type: in vivo, mouse; conditions: 72 hours after administration; FIG. 16
Method: In this extension of Example 6, we further examined the in vivo biodistribution of Gd-DO3A-404 after it is administered. Specifically, tissue biodistribution was measured in A549-flank bearing mice 72 hours after administration of Gd-DO3A-404. Nude athymic mice were sacrificed, perfused and tissues were collected and quantitated for Gd by high-resolution (magnetic-sector) inductively-coupled plasma mass spectrometry (SF-ICPMS). n=3 mice.

[10] = tested on: orthotopic U87 xenografts; assay: MRI uptake in orthotopic U87 xenografts; assay type: in vivo, mouse; conditions: NOD-SCID mice; 24 and 48 hours post administration; FIG. 18 left
Method: NOD-SCID mice with orthotopic U87 xenografts were imaged pre-administration, 24 hours, and 48 hours post administration of Gd-DO3A-404.

[11] = In vivo biodistribution by T1-weighted SPGR MRI of the abdomen; design: species or system mouse; conditions: 2.5 mg intravenous
Method: In this example, we determined the in vivo biodistribution of the Gd-DO3A-404 after the contrast agent was administered (see Example 5). During the course of performing the experiments described in Example 4, we also acquired T1-weighted spoiled gradient (SPGR) images in the abdomen of the mice, to observe biodistribution. Abdominal cross-sections imaged included the myocardium (FIGS. 8-12, top image), the liver (FIGS. 8-12, center image), and a kidney (FIGS. 8-12, bottom image). Images are shown pre-contrast (FIG. 8), and at one hour (FIG. 9), 24 hours (FIG. 10), four days (FIG. 11) and seven days post-contrast (FIG. 12).

[12] = tested on: flank A549 tumor (human non small cell lung cancer) xenograft; assay: In vivo MRI of flank A549 xenograft mice; design: species or system mouse
Method: For proof-of-concept in vivo imaging of tumor uptake of the Gd-DO3A-404 agent, nude athymic mouse with a flank A549 tumor (non small cell lung cancer) xenograft was scanned. […] Mice were anesthetized and scanning performed prior to contrast administration and at 1, 4, 24, 48, and 72 hours following contrast delivery. Imaging was performed on a 4.7 T Varian preclinical MRI scanner with a volume quadrature coil. T1-weighted images were acquired at all imaging time points using a fast spin echo scan with the following pulse sequence parameters: repetition time (TR)=206 ms, echo spacing=9 ms, echo train length=2, effective echo time (TE)=9 ms, 10 averages, with a 40×40 mm^2 field of view, 192×192 matrix, 10 slices of thickness lmm each.

SMILES: CNC[C@H](O)[C@@H](O)[C@H](O)[C@H](O)CO.O=C([O-])CN1CCN(CC(=O)[O-])CCN(CC(=O)O)CCN(CC(=O)[O-])CC1.[Gd+3] [DOTAREM®]
- relaxivities of clinical T1 shortening contrast agents [1]: 2 to 3 s⁻¹ mM⁻¹

SMILES: C[N+](C)(C)CCOP(=O)([O-])OCCCCCCCCCCCCCCCCCCc1ccc(NC(=O)CN2CCN(CC(=O)[O-])CCN(CC(=O)[O-])CCN(CC(=O)[O-])CC2)cc1.[Gd+3] [Gd-DO3A-404]
- tumor to muscle T1-weighted signal ratio following delivery ([2]; 2.5 mg intravenous, U87, versus pre-contrast, FIG. 6): approximately doubled
- onset of tumor uptake ([2]; 2.5 mg intravenous, U87 model, FIG. 4): already observable at one hour after delivery
- level and duration of tumor uptake compared with NSCLC model ([2]; 2.5 mg intravenous, U87 model, FIG. 5): appeared to reach higher levels and was maintained for a longer time period
- tumor R1 relaxation rate ([2]; U87, 48 hours post-contrast versus pre-contrast, FIG. 7): significantly increased
- tumor uptake by T1-weighted MR (clinical 3.0 T PET/MR) ([3]; 24 hours post-administration, FIG. 19): selective tumor uptake
- tumor enhancement in MRI images (simultaneous PET/MR) ([3]; 24 hours post-simultaneous administration, FIG. 20): enhanced enhances in both the T1 and T2 MRI images
- Longitudinal relaxivity (r1) ([4]; in excipient): 5.84 s⁻¹ mM⁻¹
- Longitudinal relaxivity (r1) ([4]; in plasma): 5.74 s⁻¹ mM⁻¹
- Longitudinal relaxivity (r1) ([4]; in saline): 5.68 s⁻¹ mM⁻¹
- tumor uptake by T1-weighted MRI [5]: differentially taken up by the tumor tumor tissue
- free Gd concentration [6]: 0.081%
- uptake in breast cancer tissue by MRI [7]: taken up by and localized to the breast cancer tissue
- brain tumor uptake ([8]; increased dose 3.7 mg, FIG. 15 bottom panel): uptake in one subject
- brain tumor uptake ([8]; lower dose 2.5 mg, FIG. 15 upper panel): no brain uptake was observed
- tissue biodistribution (Gd by SF-ICPMS) [9]: selectively taken up by tumor tissue
- tumor uptake by T1-weighted MRI [10]: differentially taken up by the tumor tissue
- P-kinetic profile [11]: including hepatobiliary excretion, that is similar to that of related alkylphosphocholine analogs
- circulation in the myocardium and blood pool ([11]; FIGS. 8-12): circulates for nearly up to a day
- clearance from liver and kidney ([11]; up to seven days, FIGS. 8-12): substantially cleared over time, with more rapid clearance occurring through the liver, and more prolonged clearance occurring through the kidney
- tumor to muscle T1-weighted signal ratio following delivery ([12]; 2.5 mg intravenous, A549, versus pre-contrast, FIG. 6): approximately doubled
- time of maximum tumor uptake ([12]; 2.5 mg intravenous, NSCLC model, FIG. 4): 24-48 hours post-contrast
- duration of tumor uptake ([12]; 2.5 mg intravenous, NSCLC model, FIG. 5): maintained over several days
- MRI imaging of the tumor (T1-weighted enhancement) ([12]; 2.7 mg via tail vein injection, scans 1-72 hours, FIG. 2): significantly enhanced by 24 hours post-injection
- tumor R1 relaxation rate ([12]; A549, 48 hours post-contrast versus pre-contrast, FIG. 7): significantly increased
